Measured values taken from ChEMBL document CHEMBL4610076, “Renoprotective Mono- and Triterpenoids from the Fruit of Gardenia jasminoides” (J Nat Prod, 2020).

Each molecule was assayed on NRK-52E (assay: Cytoprotective activity against LPS-induced NRK-52E cells assessed as reduction in cell death measured every 5 min for 72 hrs by xCELLigence based RTCA analysis). Settings: Rattus norvegicus.
Format: functional

| SMILES | EC50 |
| --- | --- |
| CC1(C)CC[C@]2(C(=O)O)CC[C@]3(C)C(=CC[C@@H]4[C@@]5(C)CC[C@H](O)[C@@](C)(CO)[C@@H]5[C@H](O)C[C@]43C)[C@@H]2[C@@H]1O | 0.118 µM |
| C[C@@H]1CC[C@]2(C(=O)O)CC[C@]3(C)C(=CC[C@@H]4[C@@]5(C)CC[C@H](O)C(CO)(CO)[C@@H]5CC[C@]43C)[C@@H]2[C@]1(C)O | 1.6 µM |
| CC1(C)CC(O)CC2=C1C(=O)OC2 (stereo unspecified) | > 100 µM |
| CC1=C(C(=O)O)C(C)(C)[C@@H](O)[C@H](O)C1 | > 100 µM |
| C[C@@H]1CC[C@]2(C(=O)O)CC[C@]3(C)C(=CC[C@@H]4[C@@]5(C)CC[C@H](O)[C@@](C)(CO)[C@@H]5[C@H](O)C[C@]43C)[C@@H]2[C@]1(C)O | > 100 µM |
| C=C1C(CO[C@@H]2O[C@H](COC(=O)/C=C/c3cc(OC)c(O)c(OC)c3)[C@@H](O)[C@H](O)[C@H]2O)=CC(=O)CC1(C)C | > 100 µM |
| CC1=CC(=O)CC(C)(C)[C@@H]1CO[C@@H]1O[C@H](CO)[C@@H](O)[C@H](O)[C@H]1O | > 100 µM |
| C=C(C)[C@@H]1CC[C@@H]2[C@]3(CC[C@]4(C)[C@@H]([C@@H]5CC[C@H]([C@](C)(O)CO)OC5)CC[C@@]24C)C[C@]13CCC(=O)OC | > 100 µM |
| COc1cc(/C=C/C(=O)OC[C@H]2O[C@@H](OC[C@H]3C(C)=CC(=O)CC3(C)C)[C@H](O)[C@@H](O)[C@@H]2O)cc(OC)c1O | 35.6 µM |
| C=C(C)[C@@H]1CC[C@@H]2[C@]3(CC[C@]4(C)[C@@H]([C@H](CO)CC/C=C(/C)CO)CC[C@@]24C)C[C@]13CCC(=O)O | 11.5 µM |
| CC1=C(CO)C(C)(C)C[C@H](O)[C@@H]1O | > 100 µM |
| COC(=O)CC[C@]12C[C@]13CC[C@]1(C)[C@@H]([C@H](CO)CC/C=C(/C)CO)CC[C@@]1(C)[C@@H]3CC[C@H]2C(C)(C)O | 26.8 µM |
| CC1(C)CC(=O)C=C(C(=O)O)[C@@]1(C)O | > 100 µM |
| CC1=C(CO)C(C)(C)C[C@H](O)[C@H]1O | > 100 µM |
| C=C(CO)[C@@H]1CC[C@@H]2[C@]3(CC[C@]4(C)[C@@H]([C@H](CO)CC/C=C(/C)CO)CC[C@@]24C)C[C@]13CCC(=O)OC | > 100 µM |
| CC1(C)CC(=O)C=C(C(=O)O)[C@]1(C)O | > 100 µM |

| SMILES | EC50 |
| --- | --- |
| CC1=CC(=O)CC(C)(C)[C@@H]1CO | 1.4 µM |
| CC1(C)C[C@H](O)[C@H](O[C@@H]2O[C@H](CO)[C@@H](O)[C@H](O)[C@H]2O)C2=C1C(=O)OC2 | > 100 µM |
| CC1=CC(=O)CC(C)(C)[C@H]1CO[C@@H]1O[C@H](CO)[C@@H](O)[C@H](O)[C@H]1O | 1.2 µM |
| C=C(C)[C@@H]1CC[C@@H]2[C@]3(CC[C@]4(C)[C@@H]([C@H](CO)CC/C=C(/C)CO)CC[C@@]24C)C[C@]13CCC(=O)OC | > 100 µM |
| CO[C@H]1C[C@]2(C)C(=CC[C@@H]3[C@@]4(C)CC[C@H](O)C(CO)(CO)[C@@H]4CC[C@]32C)c2c1ccc(C)c2C | > 100 µM |
| CC1=C(C(=O)O[C@@H]2O[C@H](CO)[C@@H](O)[C@H](O)[C@H]2O)C(C)(C)CC[C@@H]1O | > 100 µM |
| Cc1ccc2c(c1C)C1=CC[C@@H]3[C@@]4(C)CC[C@H](O)C(CO)(CO)[C@@H]4CC[C@@]3(C)[C@]1(C)C[C@@H]2O | > 100 µM |
| CC1=CC(=O)CC(C)(C)[C@]1(O)CO | > 100 µM |
| C=C(C)[C@@H]1CC[C@@H]2[C@]3(CC[C@]4(C)[C@@H]([C@@H]5CC[C@H]([C@](C)(O)CO)OC5)CC[C@@]24C)C[C@]13CCC(=O)O | 38.4 µM |
| CC1=C(C(=O)O)C(C)(C)C=CC1=O | > 100 µM |
| CC1=C(C(=O)O)C(C)(C)C[C@H](O)[C@@H]1O | 0.146 µM |
| CC1=C(CO)C(C)(C)C[C@H](O)[C@@H]1O[C@@H]1O[C@H](CO)[C@@H](O)[C@H](O)[C@H]1O | > 100 µM |
| C[C@H]1[C@H](C)CC[C@]2(C(=O)O)CC[C@]3(C)C(=CC[C@@H]4[C@@]5(C)CC[C@H](O)[C@@](C)(CO)[C@@H]5CC[C@]43C)[C@H]12 | > 100 µM |
| C[C@@H]1CC[C@]2(C(=O)O)CC[C@]3(C)C(=CC[C@@H]4[C@@]5(C)CC[C@H](O)C(C)(C)[C@@H]5CC[C@]43C)[C@@H]2[C@]1(C)O [POMOLIC ACID] | 0.0142 µM |
| Cc1c(C)c2c(c(C)c1O)CCC(C)(C(=O)O)O2 (stereo unspecified) [TROLOX] | 1.9 µM |
